In this test the test system is murine neural precursor cells (neurosphere cultures). The test can be described thus: HTS of LOPAC library against secondary neurosphere cultures, MTT proliferation assay at 3 μM, day 7 (z score, P value). The class given is cell-based, mouse. Background: Formazan colour is commonly taken as a measure of viable cells.
Where [1] appears, read: LOPAC library screen at 3 μM, MTT, secondary neurosphere cultures, screened in singlets.
[2] abbreviates: LOPAC primary screen, neurosphere MTT proliferation, 3 μM, day 7.
Setting [3] is: yes = significantly inhibited neurosphere proliferation (P<0.01) in the primary screen.
Where [4] appears, read: yes/no: significantly inhibited neurosphere proliferation (P<0.01) in the primary screen.
Where [5] appears, read: LOPAC library screen, 3 μM, MTT, secondary neurosphere cultures, day 7.
Setting [6] is: yes/no: significantly inhibited neurosphere proliferation (P<0.01) in primary screen.
The mark [7] stands for this setting: yes/no: significantly inhibited neurosphere proliferation in primary screen.
Setting [8] is: primary LOPAC screen, 3 μM, MTT, neurosphere proliferation.
[9] abbreviates: yes/no: significantly inhibited neurosphere proliferation in the primary screen.
Where [10] appears, read: LOPAC library screen at 3 μM, secondary neurosphere cultures, MTT.

Structures can show the parent of a compound that is named as a salt. Where two headings read alike, the source gives them in different places.

Regarding `CCOC(=O)[N-]c1cn(N2CCOCC2)n[o+]1` [Molsidomine], the “Z Score” value under setting [1] was 1.567. Also, under setting [2], the Z score amounted to 1.567. Moreover, under setting [3], the Activity result was “no”.

As to R(−)-Apocodeine hydrochloride, the “Z Score” value is reported as −9.865. Also, under setting [2], the Z score was −9.865. Moreover, the Activity result under setting [4] is reported as “yes”.

As to `O=c1cc(-c2ccc(O)c(O)c2)oc2cc(O)cc(O)c12` [Luteolin], the “Z Score” value under setting [5] is −1.323. For the same compound, the Z score under setting [2] is reported as −1.323. Besides, the Activity result under setting [6] was “no”.

Turning to MDL 26,630 trihydrochloride, the “Z Score” value is 0.3274. The compound further had a Z score under setting [2] of 0.327. The Activity entry under setting [3] is reported as “no”.

Take `O=C(O)c1cc(O)c2ccc(Cl)cc2n1` [7-Chlorokynurenic acid]: the “Z Score” value was 1.241. Moreover, the Z score (LOPAC screen, neurosphere MTT proliferation, 3 μM, day 7) is reported as 1.241. The Activity entry under setting [6] is “no”.

`NC(C(=O)O)C(O)C(=O)O` (racemic) [DL-threo-beta-hydroxyaspartic acid]: the “Z Score” value is on record as −0.5215. Further, the Z score under setting [2] is −0.522. Also, the Activity entry under setting [6] is reported as “no”.

For the compound `O=C1Cc2c([nH]c3ccc(Br)cc23)-c2ccccc2N1` [Kenpaullone], where the note is “168 h, 3 µM”, the “Z Score” value was −1.555 and the Z score is listed as −1.555. Moreover, the Activity result under setting [6] is recorded as “no”.

Regarding `COc1cc(C(O)CN)ccc1O.Cl` (stereo not shown) [(B1)-Normetanephrine hydrochloride], under setting [5], the “Z Score” value is given as −1.796.

Regarding `C[N+]1(C)[C@@H]2CC[C@H]1C[C@@H](OC(=O)C(CO)c1ccccc1)C2` (stereo partly shown) [Atropine methyl nitrate], the “Z Score” value (LOPAC library screen, 3 μM, MTT, neurosphere cultures) turned out to be 1.292. This compound also came in with a Z score under setting [2] of 1.292. For the same compound, the Activity entry under setting [7] is listed as “no”.

For `N#CC(=C(/N)Sc1ccccc1N)/C(C#N)=C(/N)Sc1ccccc1N` [U0126], the “Z Score” value was 0.711. For the same compound, under setting [8], the Z score is given as 0.711. The Activity result under setting [9] was “no”.

Consider `CCCCCCCCCCCCCCCC(=O)NCC(COP(=O)([O-])OCC[N+](C)(C)C)OCC` (racemic) [rac-2-Ethoxy-3-hexadecanamido-1-propylphosphocholine], for which, where the note is “168 h, 3 µM”, the “Z Score” value was −1.269 and the Z score is listed as −1.269. Further, the Activity result under setting [6] is given as “no”.

With `C1CCc2nnnn2CC1` [Pentylenetetrazole], the “Z Score” value under setting [10] is recorded as −0.9274. In addition, under setting [2], the Z score is −0.927. In addition, the Activity result under setting [3] was “no”.

For `CN(C)C(N)=NCCC[C@H](N)C(=O)O.Cl`, the “Z Score” value is on record as −1.373.

Turning to `O=c1[nH]c2ccccc2n1C1CCN(CCCC(c2ccc(F)cc2)c2ccc(F)cc2)CC1` [Pimozide], the “Z Score” value under setting [10] is listed as −0.2323. For the same compound, the Z score under setting [2] is on record as −0.232.

Regarding `CCCCCCCCCCCCCC(=O)O[C@@H]1[C@@H](C)[C@@]2(O)[C@@H](C=C(CO)C[C@]3(O)C(=O)C(C)=C[C@@H]23)[C@@H]2C(C)(C)[C@]12OC(C)=O` [Phorbol 12-myristate 13-acetate], the “Z Score” value is given as −0.265. Also, the Z score under setting [2] is listed as −0.265. The Activity entry under setting [7] was “no”.

As to `CCCNC(C)C(=O)Nc1ccccc1C` (stereo not shown) [Prilocaine hydrochloride], under setting [1], the “Z Score” value was found to be 1.509. Further, the Z score under setting [2] is listed as 1.509. In addition, the Activity result under setting [7] is recorded as “no”.

Take `CC1=C(/C=C/C(C)=C/C=C/C(C)=C/C=C/C=C(C)/C=C/C=C(C)/C=C/C2=C(C)C(=O)[C@@H](O)CC2(C)C)C(C)(C)C[C@H](O)C1=O` [Astaxanthin]: under “168 h, 3 µM”, the “Z Score” value worked out at 1.571 and the Z score was 1.571. Besides, the Activity entry under setting [4] is listed as “no”.

Take `NC/C=C\C(=O)O` [cis-4-Aminocrotonic acid]: the “Z Score” value under setting [10] is −1.088. Also, the Z score under setting [8] was −1.088. The Activity result under setting [9] is given as “no”.

As for `CCCCCC(O)c1cccc(OCc2ccc3ccccc3n2)c1` (stereo not shown) [REV 5901], under “168 h, 3 µM”, the “Z Score” value is −1.184 and the Z score is −1.184. Moreover, the Activity result under setting [7] is “no”.

For the origin of these results see patent US8058243B2, “Method for treating a brain cancer with ifenprodil” (HSC Research and Development Limited Partnership, priority 2006, dated 2011).
